This passage reports Km and Vmax (pM min-1 mg-1) results from ChEMBL document CHEMBL1135350, “Synthesis of an arabinofuranosyl disaccharide photoaffinity probe for arabinosyltransferase activity in Mycobacterium tuberculosis” (Bioorg Med Chem Lett, 2002).

This assay concerns Mycobacterium tuberculosis. Nature of the assay: Enzyme kinetic constant of compound for Arabinosyltransferase in Mycobacterium tuberculosis was determined.

Consider `[N-]=[N+]=Nc1cccc2c(S(=O)(=O)NCCOC3O[C@H](COC4O[C@H](CO)[C@@H](O)[C@H]4O)[C@@H](O)[C@H]3O)cccc12` (some centres not stated), for which the Michaelis constant (Km) – broadly, the concentration of substrate that gives half-maximal velocity – is 3.07 mM and the Vmax (pM min-1 mg-1) was 4.26.
